Assay results as given in article PMC11973072, “Computational screening for novel α-glucosidase inhibitory peptides from Chlamys nobilis adductor muscle as a potential antidiabetic agent” (Frontiers in Nutrition, 2025).
Values joined by “and” are separate entries in the source; they are usually repeats but may differ in a detail not shown here. Equal entries are not always repeated. Marks after values point to notes of the source that are not given here. Values belong to the compound of their own block, whether it stands above or below them. Where no end group is shown, it is not given here.

What was measured:
[1] = tested on: serum insulin; test: Effect of EHCA on serum insulin (INS); assay type: in vivo, Kunming mice; conditions: PC, metformin 150 mg/kg, mean ± SD, n = 10 mice
Description: Fifty healthy adult male Kunming mice were purchased from Zhuhai Bestest Biotechnology Co., Ltd. The experiments were approved by the Animal Ethics Committee of Guangdong Ocean University with the approval number of GDOU-LAE-2021-002, approved on 6 April 2021. Before the experiment, all animals were watered and fed freely for 7 days. […] The groups were mixed with soluble starch (250 mg/kg) and gavaged synchronously for 3 d. […] Effects of EHCA on mice at the end of the test, blood was taken from the eyeballs of mice, which were executed in the decapitated position, and the organs were collected for subsequent experiments. […] (5) […] Where WISI is the insulin sensitivity index; WFPG is fasting blood glucose, mmol/[…] is fasting insulin content (μU/mL); and WFBCI is the insulin secretion index.

[2] = tested on: blood glucose; test: Effect of EHCA on blood glucose in normal mice (starch gavage); assay type: in vivo, Kunming mice
Description: Fifty healthy adult male Kunming mice were purchased from Zhuhai Bestest Biotechnology Co., Ltd. The experiments were approved by the Animal Ethics Committee of Guangdong Ocean University with the approval number of GDOU-LAE-2021-002, approved on 6 April 2021. Before the experiment, all animals were watered and fed freely for 7 days. […] The groups were mixed with soluble starch (250 mg/kg) and gavaged synchronously for 3 d. […] Where G0 is the pre-dose fasting blood glucose value, mmol/L; […] Area under the curve (AUC) was calculated applying the following formula (Equation 4): (4) […]/4.

[3] = tested on: SOD in liver; test: Hepatic superoxide dismutase (SOD) activity; assay type: in vivo, Kunming mice; conditions: PC, metformin 150 mg/kg
Description: Fifty healthy adult male Kunming mice were purchased from Zhuhai Bestest Biotechnology Co., Ltd. The experiments were approved by the Animal Ethics Committee of Guangdong Ocean University with the approval number of GDOU-LAE-2021-002, approved on 6 April 2021. Before the experiment, all animals were watered and fed freely for 7 days. […] The groups were mixed with soluble starch (250 mg/kg) and gavaged synchronously for 3 d.

[4] = pH 7.4
[5] = molecular target: α-glucosidase (Saccharomyces cerevisiae, UniProt P53341); conditions: cited from earlier work
From the text: Marine proteins have a novel amino acid composition, which is one of the important sources for the production of bioactive peptides ([11], [12]). There have been a number of studies on natural hypoglycemic active peptides from marine sources such as Trachurus trachurus, Euphausia superba, Chlorella vulgaris and Crassostrea gigas ([11], [13-15]). […] The molecular weight of protein hydrolysates is a determinant of their biological activity, and peptide fractions with low molecular weights are highly biologically active ([33]).

[6] = tested on: glucose metabolizing enzyme; conditions: extracted from Spirulina; cited from earlier work
From the text: Marine proteins have a novel amino acid composition, which is one of the important sources for the production of bioactive peptides ([11], [12]). There have been a number of studies on natural hypoglycemic active peptides from marine sources such as Trachurus trachurus, Euphausia superba, Chlorella vulgaris and Crassostrea gigas ([11], [13–15]).

α-glucosidase, sequence (P53341 whole entry): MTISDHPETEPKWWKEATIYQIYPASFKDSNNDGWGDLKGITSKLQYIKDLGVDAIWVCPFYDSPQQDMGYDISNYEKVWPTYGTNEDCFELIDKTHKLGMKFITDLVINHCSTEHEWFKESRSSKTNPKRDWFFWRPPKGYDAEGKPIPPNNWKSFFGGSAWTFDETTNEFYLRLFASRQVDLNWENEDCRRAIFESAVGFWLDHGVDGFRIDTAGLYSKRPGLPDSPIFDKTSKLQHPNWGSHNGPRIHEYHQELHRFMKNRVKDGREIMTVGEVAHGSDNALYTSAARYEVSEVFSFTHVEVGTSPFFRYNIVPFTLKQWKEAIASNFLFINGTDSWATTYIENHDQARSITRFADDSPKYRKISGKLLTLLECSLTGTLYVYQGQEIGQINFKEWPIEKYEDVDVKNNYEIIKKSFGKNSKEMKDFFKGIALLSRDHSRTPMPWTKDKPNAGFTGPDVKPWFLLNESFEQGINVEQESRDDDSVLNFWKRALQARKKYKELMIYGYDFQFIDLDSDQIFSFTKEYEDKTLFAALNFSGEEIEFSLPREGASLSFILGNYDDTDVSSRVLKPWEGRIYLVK

Compound: CN(C)C(=N)N=C(N)N [metformin]
Fasting serum insulin ([1]; ELISA): 29.82 ± 5.50^a mIU/L
Insulin secretion index [1]: 8.50 ± 1.12^a
Insulin sensitivity index [1]: 2.13 ± 0.13^a
blood glucose values after gavage vs NC (in words) ([2]; 0.5 h and 2 h of gavage, compared with the NC group, p < 0.05): significantly reduce the blood glucose values
AUC of blood glucose (in words) ([2]; EHCA 500-2,000 mg/kg or metformin 150 mg/kg, relative to NC group, p < 0.05, n = 10): markedly reduced the AUC values
Blood glucose value, G1 ([2]; PC, metformin 150 mg/kg, gavage 3 d, fasting at the end of dosing, mean ± SD, n = 10 mice): 3.21 ± 0.20^a mmol/L
Blood glucose value, 0.5 h ([2]; PC, metformin 150 mg/kg, gavage 3 d with soluble starch, 0.5 h, mean ± SD, n = 10 mice, listed as PC): 8.45 mmol/L
Blood glucose value, 2 h ([2]; PC, metformin 150 mg/kg, gavage 3 d with soluble starch, 2 h, mean ± SD, n = 10 mice, listed as PC): 6.87 ± 1.14 mmol/L and 6.87 mmol/L
Blood glucose value, G0 ([2]; PC, metformin 150 mg/kg, pre-dose fasting, mean ± SD, n = 10 mice): 4.94 ± 1.71^a mmol/L
hypoglycemic rate (in words) ([2]; fasted mice, EHCA 500-2,000 mg/kg or metformin 150 mg/kg, 3 d, compared with the NC group, n = 10): significantly increased the hypoglycemic rate
SOD activity in liver ([3]; WST-8 method, mean ± SD, n = 10 mice, NC 242.00 ± 66.43): 363.55 ± 18.09 U/mL
increase of SOD activity in liver ([3]; compared to the NC group): 50.23%

solubility [4]: good solubility
Compound: KLNSTTEKLEE

Compound: LPLLR [Walnut-derived peptide LPLLR]
inhibition of α-glucosidase ([5]; 2 mM, walnut-derived): 50.12%

Compound: LRSELAAWSR [peptide from Spirulina platensis]
IC50 ([5]; from Spirulina platensis): 134 µM
IC50, inhibitory activity against α-glucosidase ([5]; from Spirulina platensis): 134.2 µg/mL

solubility [4]: good solubility
Compound: TDADHKF [TDADHKF, Thr-Asp-Ala-Asp-His-Lys-Phe]

Compound: USW: anti-diabetic peptide USW extracted from Spirulina (LRSELAAWSR)
effect on insulin resistance / glucose metabolizing enzyme [6]: improve insulin resistance by significantly increasing activity of glucose metabolizing enzyme
